Assay results as given in article PMC6458391, “Deep eutectic solvent for an expeditious sono-synthesis of novel series of bis-quinazolin-4-one derivatives as potential anti-cancer agents” (Royal Society Open Science, 2019).
Where two headings read alike, the source gives them in different places.

Tests used:
[1] = system: A549 (lung cancer) cell line; assay: MTT cytotoxicity assay, A549; conditions: for inhibition: 48 h, triplicate, mean ± s.e.m.; for IC50: read-out: IC50 A549, MTT, 48 h drug treatment, A549
Description: Two concentrations (10 and 30 µM in triplicate) of the derivatives were utilized and after 48 h of drug treatment the results were analyzed. The obtained results were tabulated as mean ± s.e.m. With standard errors below 10%, the reproducibility between replicate wells is within the acceptable values.
The cytotoxic activities of all newly prepared derivatives were assessed in monolayer cultures by utilizing MTT assay. […] The tested derivatives were prepared prior to the experiment by dissolving in 0.1% DMSO and diluted with medium. The cells were then exposed to two concentrations of drugs (10 and 30 µM) in the volume of 100 µM/well. Cells in the control wells received the same volume of medium comprising 0.1% DMSO. After 24 h, the medium was removed and cell cultures were incubated with 100 ml MTT reagent for 5 h at 37°C. The known number of cells was incubated in a 5% CO2 incubator at 37°C in the presence of different concentrations of test compounds. After 48 h of drug incubation, the MTT solution was added in each well and the absorbance was measured by using a microplate reader at 490 nm. The experiment was performed in triplicate. Cell survival was calculated as the percentage of MTT inhibition as % growth inhibition = 100 − (mean OD of individual test group/mean OD of each control group) × 100.

[2] = read-out: Cells viability (%) A549, 10 μM, 10 μM
[3] = read-out: Cells viability (%) A549, 30 μM, 30 μM

What does the source list for `Cc1nc2ccc(F)cc2c(=O)n1CCn1c(C)nc2ccc(F)cc2c1=O` [Compound 5d, 3,3′-(Ethane-1,2-diyl)bis(6-fluoro-2-methylquinazolin-4(3H)-one)]?
inhibition [1, 2]: 54.49 ± 0.27%; inhibition [1, 3]: 90 ± 43%; IC50 [1]: 7.95 µM; melting point: 219 to 221 °C

Which results are given for `Cc1nc2ccc(F)cc2c(=O)n1Cc1ccc(Cn2c(C)nc3ccc(F)cc3c2=O)cc1` [Compound 4d, 3,3′-(1,4-Phenylenebis(methylene))bis(6-fluoro-2-methylquinazolin-4(3H)-one)]?
inhibition [1, 2]: 94.29 ± 0.39%; inhibition [1, 3]: 96.09 ± 0.244%; IC50 [1]: 5.55 µM; melting point: 217 to 219 °C

With `CNC(=O)c1cc(Oc2ccc(NC(=O)Nc3ccc(Cl)c(C(F)(F)F)c3)cc2)ccn1` [Sorafenib, sorafenib, reference compound] as the compound, how does the inhibition [1, 2] read?
Its inhibition is 89.8 ± 1.14%.

What about the inhibition [1, 3] of the same compound?
Its inhibition is 91.2 ± 1.44%.

And the IC50 [1]?
Its IC50 is 5.2 µM.

For `Cc1nc2ccccc2c(=O)n1-c1ccc(-n2c(C)nc3ccccc3c2=O)cc1` [Compound 6a, 3,3′-(1,4-Phenylene)bis(2-methylquinazolin-4(3H)-one)], which inhibition [1, 2] is on record?
Its inhibition is 54.49 ± 0.27%.

What about the inhibition [1, 3] of the same compound?
The inhibition was 90 ± 43%.

And the IC50 [1]?
Its IC50 is 8.41 µM.

What about the melting point of the same compound?
Its melting point is 178 to 180 °C.

Which results are given for `Cc1nc2ccc(Cl)cc2c(=O)n1Cc1ccc(Cn2c(C)nc3ccc(Cl)cc3c2=O)cc1` [Compound 4c, 3,3′-(1,4-Phenylenebis(methylene))bis(6-chloro-2-methylquinazolin-4(3H)-one)]?
inhibition [1, 2]: 79.5 ± 2.61%; inhibition [1, 3]: 81.8 ± 0.87%; IC50 [1]: 6.07 µM; melting point: 327 to 330 °C

Which “potency against A549 relative to sorafenib” value ([1]; from IC50 values) does the source give for `Cc1nc2ccc([N+](=O)[O-])cc2c(=O)n1-c1ccc(S(=O)(=O)c2ccc(-n3c(C)nc4ccc([N+](=O)[O-])cc4c3=O)cc2)cc1` [Compound 7e, 3,3′-(Sulfonylbis(4,1-phenylene))bis(2-methyl-6-nitroquinazolin-4(3H)-one)] here?
The value was “approximately twice as potent as sorafenib”.

And the inhibition [1, 2]?
Its inhibition is 95.99 ± 0.14%.

What about the inhibition [1, 3] of the same compound?
The inhibition was 96.76 ± 0.87%.

What about the IC50 [1] of the same compound?
The IC50 was 2.75 µM.

And the melting point?
Its melting point is 316 to 319 °C.

For `Cc1nc2ccccc2c(=O)n1-c1cccc(-n2c(C)nc3ccccc3c2=O)c1` [Compound 11, 3,3′-(1,3-Phenylene)bis(2-methylquinazolin-4(3H)-one)], which inhibition [1, 2] is on record?
The inhibition was 79.8 ± 1.05%.

What about the inhibition [1, 3] of the same compound?
The inhibition was 83.2 ± 1.02%.

What about the IC50 [1] of the same compound?
Its IC50 is 5.94 µM.

What about the melting point of the same compound?
The melting point was 236 to 238 °C.

For `Cc1nc2ccc(Cl)cc2c(=O)n1CCn1c(C)nc2ccc(Cl)cc2c1=O` [Compound 5c, 3,3′-(Ethane-1,2-diyl)bis(6-chloro-2-methylquinazolin-4(3H)-one)], which inhibition [1, 2] is on record?
Its inhibition is 61.9 ± 2.34%.

And the inhibition [1, 3]?
Its inhibition is 82.1 ± 1.93%.

What about the IC50 [1] of the same compound?
The IC50 was 7.98 µM.

What about the melting point of the same compound?
The melting point was 244 to 246 °C.

For `Cc1nc2ccccc2c(=O)n1[C@H]1CC[C@H](n2c(C)nc3ccccc3c2=O)CC1` [Compound 3a, 3,3′-((1R,4R)-Cyclohexane-1,4-diyl)bis(2-methylquinazolin-4(3H)-one)], which inhibition [1, 2] is on record?
The inhibition was 60.2 ± 1.56%.

And the inhibition [1, 3]?
Its inhibition is 97.2 ± 0.41%.

And the IC50 [1]?
Its IC50 is 8.15 µM.

And the melting point?
The melting point was 273 to 275 °C.

Which melting point does the source give for `Cc1nc2ccccc2c(=O)n1-c1ccccc1-n1c(C)nc2ccccc2c1=O` [Compound 9, 3,3′-(1,2-Phenylene)bis(2-methylquinazolin-4(3H)-one)] here?
Its melting point is 187 to 190 °C.

For `Cc1nc2ccccc2c(=O)n1Cc1ccc(Cn2c(C)nc3ccccc3c2=O)cc1` [Compound 4a, 3,3′-(1,4-Phenylenebis(methylene))bis(2-methylquinazolin-4(3H)-one)], which inhibition [1, 2] is on record?
Its inhibition is 60.4 ± 3.31%.

And the inhibition [1, 3]?
The inhibition was 62.9 ± 1.45%.

And the IC50 [1]?
Its IC50 is 6.11 µM.

What about the melting point of the same compound?
Its melting point is 277 to 279 °C.

For `Cc1ccc2nc(C)n(Cc3ccc(Cn4c(C)nc5ccc(C)cc5c4=O)cc3)c(=O)c2c1` [Compound 4b, 3,3′-(1,4-Phenylenebis(methylene))bis(2,6-dimethylquinazolin-4(3H)-one)], which inhibition [1, 2] is on record?
The inhibition was 76 ± 2.21%.

What about the inhibition [1, 3] of the same compound?
The inhibition was 78.7 ± 1.76%.

And the IC50 [1]?
Its IC50 is 6.79 µM.

What about the melting point of the same compound?
The melting point was 285 to 287 °C.

For `Cc1nc2ccc(Cl)cc2c(=O)n1[C@H]1CC[C@H](n2c(C)nc3ccc(Cl)cc3c2=O)CC1` [Compound 3c, 3,3′-((1R,4R)-Cyclohexane-1,4-diyl)bis(6-chloro-2-methylquinazolin-4(3H)-one)], which inhibition [1, 2] is on record?
Its inhibition is 61.1 ± 1.82%.

What about the inhibition [1, 3] of the same compound?
Its inhibition is 96.98 ± 0.4%.

And the IC50 [1]?
The IC50 was 8.14 µM.

And the melting point?
Its melting point is 311 to 313 °C.

What does the source list for `Cc1nc2ccc(Cl)cc2c(=O)n1-c1ccc(S(=O)(=O)c2ccc(-n3c(C)nc4ccc(Cl)cc4c3=O)cc2)cc1` [Compound 7c, 3,3′-(Sulfonylbis(4,1-phenylene))bis(6-chloro-2-methylquinazolin-4(3H)-one)]?
inhibition [1, 2]: 72.3 ± 0.78%; inhibition [1, 3]: 88.43 ± 0.19%; IC50 [1]: 4.21 µM; melting point: 332 to 335 °C

For `Cc1ccc2nc(C)n(-c3ccc(S(=O)(=O)c4ccc(-n5c(C)nc6ccc(C)cc6c5=O)cc4)cc3)c(=O)c2c1` [Compound 7b, 3,3′-(Sulfonylbis(4,1-phenylene))bis(2,6-dimethylquinazolin-4(3H)-one)], which inhibition [1, 2] is on record?
The inhibition was 53.1 ± 2.2%.

What about the inhibition [1, 3] of the same compound?
Its inhibition is 86.8 ± 1.19%.

And the IC50 [1]?
Its IC50 is 5.77 µM.

What about the melting point of the same compound?
The melting point was 310 to 313 °C.

For `Cc1ccc2nc(C)n([C@H]3CC[C@H](n4c(C)nc5ccc(C)cc5c4=O)CC3)c(=O)c2c1` [Compound 3b, 3,3′-((1R,4R)-Cyclohexane-1,4-diyl)bis(2,6-dimethylquinazolin-4(3H)-one)], which inhibition [1, 2] is on record?
Its inhibition is 39.3 ± 2.76%.

What about the inhibition [1, 3] of the same compound?
Its inhibition is 90.12 ± 0.25%.

What about the IC50 [1] of the same compound?
Its IC50 is 15.7 µM.

What about the melting point of the same compound?
The melting point was 280 to 281 °C.

What does the source list for `Cc1nc2ccc(F)cc2c(=O)n1-c1ccc(-n2c(C)nc3ccc(F)cc3c2=O)cc1` [Compound 6d, 3,3′-(1,4-Phenylene)bis(6-fluoro-2-methylquinazolin-4(3H)-one)]?
inhibition [1, 2]: 82.7 ± 1.67%; inhibition [1, 3]: 81.78 ± 0.45%; IC50 [1]: 4.54 µM; melting point: 269 to 272 °C

Which inhibition [1, 2] does the source give for `Cc1nc2ccc(F)cc2c(=O)n1[C@H]1CC[C@H](n2c(C)nc3ccc(F)cc3c2=O)CC1` [Compound 3d, 3,3'-((1R,4R)-Cyclohexane-1,4-diyl)bis(6-fluoro-2-methylquinazolin-4(3H)-one)] here?
The inhibition was 67.49 ± 0.27%.

And the inhibition [1, 3]?
Its inhibition is 90 ± 43%.

And the IC50 [1]?
The IC50 was 8.11 µM.

And the melting point?
The melting point was 262 to 264 °C.

For `Cc1nc2ccccc2c(=O)n1-c1ccccc1N`, which melting point is on record?
Its melting point is 109 to 111 °C.

Which results are given for `Cc1nc2ccc(F)cc2c(=O)n1-c1ccc(S(=O)(=O)c2ccc(-n3c(C)nc4ccc(F)cc4c3=O)cc2)cc1` [Compound 7d, 3,3′-(Sulfonylbis(4,1-phenylene))bis(6-fluoro-2-methylquinazolin-4(3H)-one)]?
inhibition [1, 2]: 96.46 ± 0.65%; inhibition [1, 3]: 96.68 ± 0.17%; IC50 [1]: 3.45 µM; melting point: 301 to 303 °C

Which results are given for `Cc1nc2ccc(Cl)cc2c(=O)n1-c1ccc(-n2c(C)nc3ccc(Cl)cc3c2=O)cc1` [Compound 6c, 3,3′-(1,4-Phenylene)bis(6-chloro-2-methylquinazolin-4(3H)-one)]?
inhibition [1, 2]: 91.98 ± 0.49%; inhibition [1, 3]: 98.02 ± 0.21%; IC50 [1]: 5.15 µM; melting point: 287 to 290 °C

For `Cc1nc2ccc([N+](=O)[O-])cc2c(=O)n1CCn1c(C)nc2ccc([N+](=O)[O-])cc2c1=O` [Compound 5e, 3,3′-(Ethane-1,2-diyl)bis(2-methyl-6-nitroquinazolin-4(3H)-one)], which inhibition [1, 2] is on record?
The inhibition was 91.54 ± 0.56%.

What about the inhibition [1, 3] of the same compound?
The inhibition was 97.83 ± 0.24%.

And the IC50 [1]?
The IC50 was 5.05 µM.

And the melting point?
The melting point was 278 to 279 °C.

Which inhibition [1, 2] does the source give for `Cc1nc2ccc([N+](=O)[O-])cc2c(=O)n1-c1ccc(-n2c(C)nc3ccc([N+](=O)[O-])cc3c2=O)cc1` [Compound 6e, 3,3′-(1,4-Phenylene)bis(2-methyl-6-nitroquinazolin-4(3H)-one)] here?
Its inhibition is 95.4 ± 0.24%.

What about the inhibition [1, 3] of the same compound?
The inhibition was 97.6 ± 0.21%.

And the IC50 [1]?
The IC50 was 3.43 µM.

And the melting point?
The melting point was 307 to 310 °C.

Which results are given for `Cc1nc2ccc([N+](=O)[O-])cc2c(=O)n1Cc1ccc(Cn2c(C)nc3ccc([N+](=O)[O-])cc3c2=O)cc1` [Compound 4e, 3,3′-(1,4-Phenylenebis(methylene))bis(2-methyl-6-nitroquinazolin-4(3H)-one)]?
inhibition [1, 2]: 80.2 ± 2.1%; inhibition [1, 3]: 87 ± 1.45%; IC50 [1]: 2.98 µM; melting point: 350 to 353 °C

Which inhibition [1, 2] does the source give for `Cc1nc2ccc([N+](=O)[O-])cc2c(=O)n1[C@H]1CC[C@H](n2c(C)nc3ccc([N+](=O)[O-])cc3c2=O)CC1` [Compound 3e, 3,3′-((1R,4R)-Cyclohexane-1,4-diyl)bis(2-methyl-6-nitroquinazolin-4(3H)-one)] here?
The inhibition was 77.1 ± 1.78%.

And the inhibition [1, 3]?
Its inhibition is 82.8 ± 1.64%.

What about the IC50 [1] of the same compound?
Its IC50 is 5.34 µM.

And the melting point?
Its melting point is 301 to 304 °C.

With `Cc1ccc2nc(C)n(CCn3c(C)nc4ccc(C)cc4c3=O)c(=O)c2c1` [Compound 5b, 3,3′-(Ethane-1,2-diyl)bis(2,6-dimethylquinazolin-4(3H)-one)] as the compound, how does the inhibition [1, 2] read?
Its inhibition is 40 ± 2.11%.

What about the inhibition [1, 3] of the same compound?
Its inhibition is 89.7 ± 1.76%.

What about the IC50 [1] of the same compound?
Its IC50 is 15.7 µM.

And the melting point?
Its melting point is 211 to 212 °C.

With `Cc1ccc2nc(C)n(-c3ccc(-n4c(C)nc5ccc(C)cc5c4=O)cc3)c(=O)c2c1` [Compound 6b, 3,3′-(1,4-Phenylene)bis(2,6-dimethylquinazolin-4(3H)-one)] as the compound, how does the inhibition [1, 2] read?
Its inhibition is 59.2 ± 1.53%.

What about the inhibition [1, 3] of the same compound?
The inhibition was 95.12 ± 0.22%.

And the IC50 [1]?
Its IC50 is 8.13 µM.

What about the melting point of the same compound?
The melting point was 263 to 265 °C.

For `Cc1nc2ccccc2c(=O)n1CCn1c(C)nc2ccccc2c1=O` [Compound 5a, 3,3′-(Ethane-1,2-diyl)bis(2-methylquinazolin-4(3H)-one)], which inhibition [1, 2] is on record?
The inhibition was 32.4 ± 2.91%.

What about the inhibition [1, 3] of the same compound?
Its inhibition is 88.7 ± 1.83%.

And the IC50 [1]?
Its IC50 is 12.3 µM.

And the melting point?
The melting point was 190 to 192 °C.

With `Cc1nc2ccccc2c(=O)n1-c1ccc(S(=O)(=O)c2ccc(-n3c(C)nc4ccccc4c3=O)cc2)cc1` [Compound 7a, 3,3′-(Sulfonylbis(4,1-phenylene))bis(2-methylquinazolin-4(3H)-one)] as the compound, how does the inhibition [1, 2] read?
Its inhibition is 82.7 ± 1.63%.

And the inhibition [1, 3]?
Its inhibition is 82.1 ± 0.5%.

What about the IC50 [1] of the same compound?
The IC50 was 4.58 µM.

And the melting point?
Its melting point is 294 to 297 °C.

For `Cc1nc2ccccc2c(=O)n1-c1cccc(N)c1`, which melting point is on record?
The melting point was 121 to 123 °C.
